Data as given in patent publication US20080114027A1, “Method for treating delirium” (priority 2006, published 2008).

Experiments:
PDE-3 = conditions: cited from earlier work
PDE-10 = PDE-10 (Homo sapiens, UniProt Q9Y233); conditions: cited from earlier work
PDE-11 = PDE-11 (Homo sapiens, UniProt Q9HCR9); conditions: cited from earlier work
rat tail-flick model = assay: Anti-nociceptive pain testing, rat tail-flick model; assay type: in vivo, Male Sprague-Dawley (CD) rats; conditions: 7.5 mg/kg i.p., magnitude and duration similar to morphine 1.3 mg/kg s.c., FIG. 1
PDE-4 = conditions: cited from earlier work

Sequence of PDE-10 (Q9Y233 whole entry): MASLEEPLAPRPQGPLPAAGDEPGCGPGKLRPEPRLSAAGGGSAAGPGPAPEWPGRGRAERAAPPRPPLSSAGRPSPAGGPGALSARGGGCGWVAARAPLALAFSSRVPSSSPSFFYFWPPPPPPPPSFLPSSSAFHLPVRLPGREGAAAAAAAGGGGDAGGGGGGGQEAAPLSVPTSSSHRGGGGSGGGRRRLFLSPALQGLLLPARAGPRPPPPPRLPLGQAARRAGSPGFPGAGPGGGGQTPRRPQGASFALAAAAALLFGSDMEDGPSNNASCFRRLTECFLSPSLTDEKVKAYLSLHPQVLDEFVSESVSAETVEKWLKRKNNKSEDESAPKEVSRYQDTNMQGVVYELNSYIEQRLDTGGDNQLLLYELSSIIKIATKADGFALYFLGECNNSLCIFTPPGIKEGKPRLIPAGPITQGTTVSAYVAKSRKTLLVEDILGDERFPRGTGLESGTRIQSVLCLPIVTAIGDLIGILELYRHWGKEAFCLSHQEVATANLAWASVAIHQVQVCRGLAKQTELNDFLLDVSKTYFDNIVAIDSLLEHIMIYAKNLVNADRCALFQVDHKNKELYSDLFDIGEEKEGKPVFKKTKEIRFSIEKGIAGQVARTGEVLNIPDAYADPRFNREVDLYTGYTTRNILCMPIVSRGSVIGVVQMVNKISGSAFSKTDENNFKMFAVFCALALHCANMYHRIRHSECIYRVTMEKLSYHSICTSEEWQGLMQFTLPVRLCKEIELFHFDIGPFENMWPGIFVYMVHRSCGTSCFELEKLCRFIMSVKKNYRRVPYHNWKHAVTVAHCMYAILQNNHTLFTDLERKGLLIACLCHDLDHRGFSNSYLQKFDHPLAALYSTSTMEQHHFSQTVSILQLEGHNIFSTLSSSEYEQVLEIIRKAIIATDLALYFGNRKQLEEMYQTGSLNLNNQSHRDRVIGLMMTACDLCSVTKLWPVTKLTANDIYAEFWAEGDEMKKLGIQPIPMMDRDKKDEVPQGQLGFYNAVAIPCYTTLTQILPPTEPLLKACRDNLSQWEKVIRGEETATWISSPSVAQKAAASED
Sequence of PDE-11 (Q9HCR9 whole entry): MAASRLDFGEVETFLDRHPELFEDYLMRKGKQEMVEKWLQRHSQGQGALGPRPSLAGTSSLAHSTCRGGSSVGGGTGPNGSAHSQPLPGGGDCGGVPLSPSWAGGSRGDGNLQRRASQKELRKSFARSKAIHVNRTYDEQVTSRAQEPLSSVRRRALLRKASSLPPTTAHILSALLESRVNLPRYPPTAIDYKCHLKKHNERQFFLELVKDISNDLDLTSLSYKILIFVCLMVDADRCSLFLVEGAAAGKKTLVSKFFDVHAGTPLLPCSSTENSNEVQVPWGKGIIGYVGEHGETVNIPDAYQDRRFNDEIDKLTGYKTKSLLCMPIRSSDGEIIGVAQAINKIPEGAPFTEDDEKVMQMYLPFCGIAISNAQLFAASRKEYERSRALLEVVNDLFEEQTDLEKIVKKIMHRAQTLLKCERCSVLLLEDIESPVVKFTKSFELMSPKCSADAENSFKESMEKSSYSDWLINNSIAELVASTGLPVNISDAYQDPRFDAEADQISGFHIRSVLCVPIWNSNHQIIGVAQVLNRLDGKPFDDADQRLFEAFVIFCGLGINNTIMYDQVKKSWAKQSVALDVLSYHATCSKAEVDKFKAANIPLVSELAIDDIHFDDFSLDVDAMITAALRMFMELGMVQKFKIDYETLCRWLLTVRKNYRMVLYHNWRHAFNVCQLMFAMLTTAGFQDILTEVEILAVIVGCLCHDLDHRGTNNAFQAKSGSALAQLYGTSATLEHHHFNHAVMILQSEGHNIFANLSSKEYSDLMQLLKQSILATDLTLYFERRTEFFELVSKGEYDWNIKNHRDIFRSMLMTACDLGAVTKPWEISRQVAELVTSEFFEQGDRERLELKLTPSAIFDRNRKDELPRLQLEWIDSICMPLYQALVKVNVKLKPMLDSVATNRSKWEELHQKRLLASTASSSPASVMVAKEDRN

## CC(C)C(=O)c1c(C(C)C)nn2ccccc12 [ibudilast, 2-methyl-1-(2-(1-methylethyl)pyrazolo(1,5-a)pyridin-3-yl)1-propanone]
PDE-3
  PDE inhibitory activity: most active
PDE-10
  PDE inhibitory activity: most active
PDE-11
  PDE inhibitory activity: most active
Rat tail-flick model
  acute analgesic efficacy (tail-flick latency time): increased the latency time
PDE-4
  PDE inhibitory activity: most active
